The assay relates to MDA-MB-468 breast. Put plainly: NCI-60 cell line screen, 48 h.

Where “and” joins values, the source holds several entries; their conditions need not be identical. Equal values may be shown once.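 48-hour exposure; five concentrations; linearly interpolated endpoints. GI50 marks 50% less growth. TGI is the concentration that stops growth completely.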

In the case of `O=C1c2cccc(Oc3ccccc3)c2C(=O)c2cccc(Oc3ccccc3)c21`, the GI50 is > 100000 nM and the TGI is > 100000 nM.

`O=C(/C=C/C12c3ccccc3C(c3ccccc31)C1C(=O)NC(=O)C12)c1ccccn1` (stereo unspecified): the GI50 is 1710 nM and the TGI turned out to be 4030 nM. The matching figures for `CCN1C(=S)N(CC)C2C1NC(=S)N2/N=C/C=C/c1ccccc1OC` (stereo unspecified): 347 nM and 31400 nM. On to `CC1=C(C(=O)Nc2ccccc2)C(c2ccc(N(C)C)cc2)C(C(=O)Nc2ccccc2)=C(C)N1`, for which the GI50 is 43900 nM and the TGI was > 100000 nM. Turning to `Cc1cccc(NC(=O)c2sc3nc4c(cc3c2N)C(=O)CCC4)c1`, the GI50 was 80.7 nM and the TGI is 2660 nM.

Turning to `Nc1ncnc2c1N=C(c1ccc3c(c1)OCO3)CC(c1ccc(Cl)cc1)N2` (stereo unspecified), the GI50 is 10100 nM and the TGI came to 54900 nM. With `CCN1C(=O)N(CC)C2SC(N/N=C/c3ccc(OC)cc3)=NC21` (stereo unspecified), the GI50 is 314 nM. With `CC1(C)N=C(N)N=C(N)N1c1ccc(CCC(=O)Nc2ccc(S(=O)(=O)F)cc2)cc1`, the GI50 is 1010 nM and the TGI was > 100000 nM. The matching figures for `COc1ccc(OC)c(NCC(=O)n2nc(/C=C\c3ccc(O)c(OC)c3)cc2/C=C\c2ccc(O)c(OC)c2)c1`: 2850 nM and 23300 nM. The matching figures for `O=C(OCc1ccc2c(Br)cc(Br)c(O)c2n1)c1cc2ccccc2[nH]1`: 419 nM and 1540 nM. The matching figures for `C[C@]12CC[C@H]3[C@@H](CCC4=CC(=O)CC[C@@]43C)[C@@H]1CC[C@@H]2c1csc(N)n1`: 1170 nM and 18500 nM. As for `CN(C)CCCC1(c2ccc(F)cc2)OCc2cc(-c3cccc4[nH]ccc34)ccc21` (stereo unspecified), the GI50 is 1790 nM and the TGI was 3430 nM. `COc1cc2c(cc1Nc1nc(N3CCc4ccccc43)c3cc[nH]c3n1)N(C(=O)CN(C)C)CC2`: the GI50 is 1300 nM and the TGI came to 2830 nM.

For `COc1cc2c(N3CCN(C(=O)Nc4ccc(OC(C)C)cc4)CC3)ncnc2cc1OCCCN1CCCCC1`, the GI50 was 14100 nM and the TGI was 42900 nM. The matching figures for `CCN(CC)CCCC(C)NCC(=O)NC(c1ccc2c(c1)OCO2)c1cc(Cl)c2cccnc2c1O` (stereo unspecified): 1870 nM and 4500 nM. The matching figures for `COc1ccc2c(N)ncc(C#Cc3cc(C(=O)Nc4ccc(CN5CCN(C)CC5)c(C(F)(F)F)c4)cnc3C)c2c1`: 2460 nM and 8940 nM. For `CNCc1cccc2c1OCCOCCOCCN(C)S(=O)(=O)c1ccc(cc1)-c1cnc(N)c(n1)C(=O)N2`, in that order: 2620 nM and 14600 nM.

Regarding `COc1ccc2sc3c(NCCCN)nc4ccccc4c3c(=O)c2c1`, the GI50 is 1560 nM and the TGI came out at 3190 nM. In the case of `Nc1nc2c(c3cnccc13)C(c1ccc(Cl)c(Cl)c1)Cc1cnccc1-2` (stereo unspecified), the GI50 was 270 nM and the TGI came to 807 nM. Consider `Cc1nn(-c2ccc(Cl)cc2)c2ncnc(N/N=C/c3ccccc3O)c12`, for which the GI50 is 1710 nM and 1030 nM; the TGI was 6460 nM and 7680 nM. As for `CC(C)(CO)CNC(=O)c1ccc2[nH]c(O)c(N=Nc3ccc(S(N)(=O)=O)cc3)c2c1`, the GI50 is > 17900 nM and the TGI was > 25000 nM. The matching figures for `COC(=O)OC1C(O[C@H]2C[C@H]3[C@@H]4CC=C5C[C@@H](O)CC[C@]5(C)[C@H]4CC[C@]3(C)[C@H]2[C@H](C)C(=O)CCC(C)C)OCC(O)C1OC1OCC(O)C(O)C1OC(=O)c1ccc(OC)cc1` (stereo partly specified): 111 nM and 1700 nM. The matching figures for `O=C1NC(=N[C@@H](CO)c2ccccc2)S/C1=C\c1ccc2ncccc2c1`: 5780 nM and > 25000 nM. The matching figures for `O=C1C=C[C@H](O)[C@@]2(CO)O[C@@H]12`: 4610 nM and 20000 nM. Take `CC(=O)ON1CCCC(P(=O)(OCOC(=O)C(C)(C)C)OCOC(=O)C(C)(C)C)C1=O` (stereo unspecified): the GI50 was 1010 nM and the TGI is 5920 nM. The matching figures for `COc1ccc(OC)c(/C=C/c2nc(=S)n(-c3ccc(Cl)cc3)[nH]2)c1`: 3510 nM and 55400 nM.

On to `O=C(Nc1cccc(-n2cc(-c3ccncc3)c(-c3cc(O)cc(Cl)c3)n2)c1)c1ccc(N2CCOCC2)c(C(F)(F)F)c1`, for which the GI50 is 3420 nM and the TGI was 43300 nM. The matching figures for `CNC(=O)c1ncccc1Nc1nc(Nc2cc3c(cc2OC)CCCN3C(=O)CN(C)C)nc2[nH]ccc12`: 435 nM and 2470 nM. The matching figures for `Fc1cccc(Cl)c1/C=N/Nc1nc(N/N=C/c2c(F)cccc2Cl)nc(N2CCCCC2)n1`: 1860 nM and 6890 nM. For `Cc1ccc(O)cc1Nc1ccnc2ccc(S(C)(=O)=O)cc12`, in that order: 2040 nM and 9370 nM.

On to `CCN=c1sc2c(n1NC(=O)c1cc3ccc1CCc1ccc(cc1)CC3)C(=O)c1ccccc1C2=O`, for which the GI50 was 719 nM and the TGI came out at 1830 nM. The matching figures for `Cn1nccc1Nc1nccc(-c2ccn([C@H](CO)c3ccc(Cl)c(F)c3)c(=O)c2)n1`: 18800 nM and 57900 nM.

Consider `CCCCCOc1ccc(/C=N/Nc2cc(C)nc3ccc(Cl)cc23)cc1`, for which the GI50 is 1700 nM and the TGI was found to be 3370 nM. In the case of `CCn1cc(C(=O)O)c(=O)c2cc(F)c(N3CCN(S(=O)(=O)c4cccc5ccccc45)CC3)cc21`, the GI50 is 2520 nM and the TGI turned out to be 7320 nM.

`N#Cc1nc2c(S(=O)(=O)c3ccc(Cl)cc3)c(N)n(Nc3cccc(Cl)c3)c2nc1C#N`: the GI50 was 7.06 nM and the TGI was determined as 195 nM.

On to `Cn1c([N+](=O)[O-])cnc1C=C1C(=O)c2ccccc2C1=O`, for which the GI50 is 7350 nM and the TGI is 33100 nM. Turning to `OC1(c2ccc(Cl)c(C(F)(F)F)c2)CCN(CCCC(c2ccc(F)cc2)c2ccc(F)cc2)CC1`, the GI50 is 707 nM and the TGI came to 1370 nM. For `c1ccc(-c2[nH]ncc2-c2ccnc(-c3ccc(OCCn4ccnc4)cc3)c2)nc1`, in that order: 12200 nM and > 25000 nM. For `CCCCCCCCCCCC[N+]1(CCCCCCCCCCCC)CCCC(C)C1` (stereo unspecified), in that order: 68.9 nM and 388 nM.

With `COc1ccc2c(c1)c(-c1nc(-c3c[nH]c4ncccc34)cs1)cn2CCCN1CCOCC1`, the GI50 is 2520 nM and the TGI stood at 5250 nM. For `Cc1c(C(=N)C(C#N)C#N)c(=N)oc2c1ccc1ccccc12`, in that order: 13500 nM and 46000 nM.

As for `O=C1/C(=C/c2ccc(Cl)c(Cl)c2)CN(C(=O)CCN2CCC(=NO)CC2)C/C1=C\c1ccc(Cl)c(Cl)c1`, the GI50 was 898 nM and the TGI stood at 2400 nM. The matching figures for `FC(F)(F)Oc1cccc(-c2cc(NCCCCCCNc3cc(-c4cccc(OC(F)(F)F)c4)nc4ccc(N5CCCC5)cc34)c3cc(N4CCCC4)ccc3n2)c1`: 1590 nM and 3210 nM. As to `CCN(CC)CCCNc1ccc(C)c2sc3ccccc3c(=O)c12`, the GI50 was 365 nM and the TGI was 1270 nM. The matching figures for `Cc1ccc2c(-c3ccnc(Nc4ccc5c(c4)OCCO5)n3)c(-c3ccc(C(F)(F)F)cc3)nn2n1`: 5190 nM and > 25000 nM. For `CN[C@@H](C)C(=O)N[C@H]1CN(S(=O)(=O)c2cccc(S(=O)(=O)N3CC[C@H]4CC[C@@H](C(=O)NC(c5ccccc5)c5ccccc5)N4C(=O)[C@@H](NC(=O)[C@H](C)NC)C3)c2)CC[C@H]2CC[C@@H](C(=O)NC(c3ccccc3)c3ccccc3)N2C1=O`, in that order: < 10 nM and 81.9 nM. Turning to `CCN(CC)Cc1cc(Nc2nc(NC3CCC(N(C)C)CC3)c3ccccc3n2)ccc1OC` (stereo unspecified), the GI50 is 1640 nM and the TGI stood at 3160 nM.

`CCNc1nc(O)c(/C=C2\C=Nc3ncccc32)s1`: the GI50 was 1990 nM and the TGI stood at 4270 nM. The matching figures for `CC(=O)O[C@H]1C(=O)[C@@]2(C)C([C@H](OC(=O)c3ccccc3)[C@]3(O)C[C@H](OC(=O)[C@H](O)[C@@H](NC(=O)c4ccccc4)c4ccccc4)C(C)=C1C3(C)C)[C@]1(OC(C)=O)CO[C@@H]1C[C@@H]2O` (stereo partly specified): < 5 nM and 54.5 nM. For `N#CC1(c2ccc(NC(=O)c3cccnc3NCc3ccncc3)cc2)CCCC1`, in that order: 7040 nM and 51800 nM. The matching figures for `N#CC1c2ccccc2C=CN1C(=O)CCCl` (stereo unspecified): 2100 nM and 5740 nM.

These data come from PubChem BioAssay (NCI).
